Columns and labels:
[1] = target: Beta-3 adrenergic receptor (Homo sapiens, UniProt P13945); assay: DRUGMATRIX: Adrenergic beta3 radioligand binding (ligand: [125I] Cyanopindolol); type: cell membranes, HEK293, Membrane; conditions: hek293; Not Active = under 50% inhibition at 10 µM
[2] = target: T1, Vasoactive intestinal polypeptide receptor 1 (Homo sapiens, UniProt P32241); type: cell membranes, Membrane; conditions: ht-29; further: in other assays of this panel Not Active means under 50% inhibition at 10 µM
T1 sequence (P32241 whole entry): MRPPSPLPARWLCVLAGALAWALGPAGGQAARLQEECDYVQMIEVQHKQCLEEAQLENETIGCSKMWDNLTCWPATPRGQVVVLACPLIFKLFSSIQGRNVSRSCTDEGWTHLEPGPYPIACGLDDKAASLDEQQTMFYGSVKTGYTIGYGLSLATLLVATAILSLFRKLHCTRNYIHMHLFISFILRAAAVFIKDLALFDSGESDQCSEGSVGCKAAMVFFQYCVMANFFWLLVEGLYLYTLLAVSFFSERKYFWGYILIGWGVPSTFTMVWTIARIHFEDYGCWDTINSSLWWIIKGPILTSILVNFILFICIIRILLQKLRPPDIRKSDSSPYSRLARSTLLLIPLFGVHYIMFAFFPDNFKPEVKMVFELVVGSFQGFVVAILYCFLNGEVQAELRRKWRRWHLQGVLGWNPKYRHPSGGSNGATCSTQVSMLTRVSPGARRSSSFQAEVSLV

[3] = target: 5-hydroxytryptamine receptor 4 (Cavia porcellus, UniProt O70528); type: cell membranes, Dunkin-Hartley, Striatum, Membrane; further: in other assays of this panel Not Active means under 50% inhibition at 10 µM
[4] = DRUGMATRIX: Calcium Channel Type L, Dihydropyridine radioligand binding (ligand: [3H] Nitrendipine); type: cell membranes, Rattus norvegicus, Wistar, Cerebral cortex, Membrane; conditions: Not Active = under 50% inhibition at 10 µM
[5] = DRUGMATRIX: Calcium Channel Type L, Benzothiazepine radioligand binding (ligand: [3H] Diltiazem); type: cell membranes, Rattus norvegicus, Wistar, Brain, Membrane; conditions: Not Active = under 50% inhibition at 10 µM
[6] = target: T2, C-X-C chemokine receptor type 2 (Homo sapiens, UniProt P25025); type: cell membranes, Membrane; conditions: cho-k1; further: in other assays of this panel Not Active means under 50% inhibition at 10 µM
T2 sequence (P25025 whole entry): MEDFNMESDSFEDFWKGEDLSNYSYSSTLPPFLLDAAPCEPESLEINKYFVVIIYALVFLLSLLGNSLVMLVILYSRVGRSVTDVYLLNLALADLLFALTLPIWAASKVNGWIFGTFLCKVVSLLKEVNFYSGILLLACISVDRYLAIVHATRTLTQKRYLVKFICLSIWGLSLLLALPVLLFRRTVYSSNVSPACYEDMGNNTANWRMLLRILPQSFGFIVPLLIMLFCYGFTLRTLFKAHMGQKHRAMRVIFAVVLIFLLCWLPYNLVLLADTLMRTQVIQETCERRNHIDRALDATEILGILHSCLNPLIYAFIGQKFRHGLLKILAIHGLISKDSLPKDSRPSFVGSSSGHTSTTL

Sequence of Beta-3 adrenergic receptor (P13945 whole entry): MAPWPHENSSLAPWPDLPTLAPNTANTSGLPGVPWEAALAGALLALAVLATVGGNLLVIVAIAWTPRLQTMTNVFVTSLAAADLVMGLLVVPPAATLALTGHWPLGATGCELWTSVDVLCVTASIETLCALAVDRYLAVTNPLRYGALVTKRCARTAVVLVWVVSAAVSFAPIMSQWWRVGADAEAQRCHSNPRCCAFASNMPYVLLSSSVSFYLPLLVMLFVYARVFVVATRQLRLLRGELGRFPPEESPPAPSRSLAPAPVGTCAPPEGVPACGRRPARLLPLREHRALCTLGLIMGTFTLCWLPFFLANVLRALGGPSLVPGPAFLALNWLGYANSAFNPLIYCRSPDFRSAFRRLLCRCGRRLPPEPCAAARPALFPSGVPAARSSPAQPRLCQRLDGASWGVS
Sequence of 5-hydroxytryptamine receptor 4 (O70528 whole entry): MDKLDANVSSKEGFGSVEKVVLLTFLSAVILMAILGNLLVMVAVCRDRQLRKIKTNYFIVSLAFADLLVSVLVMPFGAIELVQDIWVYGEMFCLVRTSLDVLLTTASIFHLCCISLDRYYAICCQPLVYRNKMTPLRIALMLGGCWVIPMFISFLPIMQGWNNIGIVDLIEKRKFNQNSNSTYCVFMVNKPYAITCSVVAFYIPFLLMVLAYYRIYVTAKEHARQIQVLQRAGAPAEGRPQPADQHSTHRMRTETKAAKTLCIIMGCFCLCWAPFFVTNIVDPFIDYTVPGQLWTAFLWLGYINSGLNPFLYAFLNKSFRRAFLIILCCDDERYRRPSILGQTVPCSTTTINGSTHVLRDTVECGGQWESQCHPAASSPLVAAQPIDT

Compound	IC50 [1]	IC50 [2]	IC50 [3]	IC50 [4]	Ki [4]	IC50 [5]	Ki [5]	IC50 [6]	IC50 ([5]; read-out: IC50)	Ki ([5]; read-out: Ki)
CC(=O)OCC(=O)[C@@]1(O)CC[C@H]2[C@@H]3CCC4=CC(=O)CC[C@]4(C)[C@@]3(F)[C@@H](O)C[C@@]21C [FLUDROCORTISONE ACETATE]	Not Active	Not Active	Not Active	Not Active	Not Active	Not Active	Not Active	Not Active	–	–
CCOC(=O)c1ncn2c1CN(C)C(=O)c1cc(F)ccc1-2 [FLUMAZENIL]	Not Active	Not Active	Not Active	Not Active	Not Active	Not Active	Not Active	Not Active	–	–
CC(=O)OCC(=O)[C@@]12OC(C)(C)O[C@@H]1C[C@H]1[C@@H]3C[C@H](F)C4=CC(=O)C=C[C@]4(C)[C@@]3(F)[C@@H](O)C[C@@]12C [FLUOCINONIDE]	Not Active	Not Active	Not Active	Not Active	Not Active	Not Active	Not Active	Not Active	–	–
O=C(O)P(=O)(O)O [FOSCARNET]	Not Active	Not Active	Not Active	Not Active	Not Active	Not Active	Not Active	Not Active	–	–
Cc1ccc(C)c(OCCCC(C)(C)C(=O)O)c1 [GEMFIBROZIL]	Not Active	Not Active	Not Active	Not Active	Not Active	Not Active	Not Active	Not Active	–	–
O=c1c(-c2ccc(O)cc2)coc2cc(O)cc(O)c12 [GENISTEIN]	Not Active	Not Active	Not Active	Not Active	Not Active	Not Active	Not Active	Not Active	–	–
CCC1=C(C)CN(C(=O)NCCc2ccc(S(=O)(=O)NC(=O)N[C@H]3CC[C@H](C)CC3)cc2)C1=O [GLIMEPIRIDE]	Not Active	Not Active	Not Active	Not Active	Not Active	Not Active	Not Active	Not Active	–	–
Nc1cc(-c2ccncc2)c[nH]c1=O [INAMRINONE]	Not Active	Not Active	Not Active	Not Active	Not Active	Not Active	Not Active	Not Active	–	–
CCCCC1=NC2(CCCC2)C(=O)N1Cc1ccc(-c2ccccc2-c2nnn[nH]2)cc1 [IRBESARTAN]	Not Active	Not Active	Not Active	Not Active	Not Active	Not Active	Not Active	Not Active	–	–
CN1CCC(=C2c3ccccc3CC(=O)c3sccc32)CC1 [KETOTIFEN]	Not Active	Not Active	Not Active	Not Active	Not Active	–	–	Not Active	2.31 µM	2.05 µM
N[C@@H](Cn1ccc(=O)c(O)c1)C(=O)O [L-MIMOSINE]	Not Active	Not Active	Not Active	Not Active	Not Active	Not Active	Not Active	Not Active	–	–
C[N+](C)(C)C[C@H](O)CC(=O)[O-] [LEVOCARNITINE]	Not Active	Not Active	Not Active	Not Active	Not Active	Not Active	Not Active	Not Active	–	–
C[C@H]1COc2c(N3CCN(C)CC3)c(F)cc3c(=O)c(C(=O)O)cn1c23.C[C@H]1COc2c(N3CCN(C)CC3)c(F)cc3c(=O)c(C(=O)O)cn1c23.O [LEVOFLOXACIN]	Not Active	Not Active	Not Active	Not Active	Not Active	Not Active	Not Active	Not Active	–	–
CCn1cc(C(=O)O)c(=O)c2cc(F)c(N3CCNC(C)C3)c(F)c21 (centres undefined) [LOMEFLOXACIN]	Not Active	Not Active	Not Active	Not Active	Not Active	Not Active	Not Active	Not Active	–	–
CN1CCCC(CN2c3ccccc3Sc3ccccc32)C1 (centres undefined) [MEPAZINE]	Not Active	Not Active	Not Active	Not Active	Not Active	Not Active	Not Active	Not Active	–	–
Cc1cccc(C)c1NC(=O)C1CCCCN1C (centres undefined) [MEPIVACAINE]	Not Active	Not Active	Not Active	Not Active	Not Active	Not Active	Not Active	Not Active	–	–
CN(C)C(=N)NC(=N)N [METFORMIN]	Not Active	Not Active	Not Active	Not Active	Not Active	Not Active	Not Active	Not Active	–	–
CC(C)(C)NCC(O)COc1cccc2c1CC(O)C(O)C2 (centres undefined) [NADOLOL]	Not Active	Not Active	Not Active	Not Active	Not Active	Not Active	Not Active	Not Active	–	–
C[C@]12CC[C@H]3[C@@H](CCC4=CC(=O)CC[C@@H]43)[C@@H]1CC[C@@H]2O [NANDROLONE]	Not Active	Not Active	Not Active	Not Active	Not Active	Not Active	Not Active	Not Active	–	–
C[C@@H]1C/C=C/C=C/C=C/C=C/[C@H](O[C@@H]2O[C@H](C)[C@@H](O)[C@H](N)[C@@H]2O)C[C@@H]2O[C@](O)(C[C@@H](O)C[C@H]3O[C@@H]3/C=C/C(=O)O1)C[C@H](O)[C@H]2C(=O)O [NATAMYCIN]	Not Active	Not Active	Not Active	Not Active	Not Active	Not Active	Not Active	Not Active	–	–
CN(C)C(=O)Oc1cccc([N+](C)(C)C)c1.[Br-] [NEOSTIGMINE BROMIDE]	Not Active	Not Active	Not Active	Not Active	Not Active	Not Active	Not Active	Not Active	–	–
NC(=O)c1cccnc1 [NIACINAMIDE]	Not Active	Not Active	Not Active	Not Active	Not Active	Not Active	Not Active	Not Active	–	–
CS(=O)(=O)Nc1ccc([N+](=O)[O-])cc1Oc1ccccc1 [NIMESULIDE]	Not Active	Not Active	Not Active	Not Active	Not Active	Not Active	Not Active	Not Active	–	–
CN1C(=O)CN=C(c2ccccc2)c2cc([N+](=O)[O-])ccc21 [NIMETAZEPAM]	Not Active	Not Active	Not Active	Not Active	Not Active	Not Active	Not Active	Not Active	–	–
COc1ccc2c(c1OC)C(=O)O[C@@H]2[C@H]1c2c(cc3c(c2OC)OCO3)CCN1C [NOSCAPINE]	Not Active	Not Active	Not Active	Not Active	Not Active	Not Active	Not Active	Not Active	–	–
C[C@@H]1O[C@@H](O[C@H]2C[C@@H](O)[C@]3(CO)[C@H]4[C@H](O)C[C@]5(C)[C@@H](C6=CC(=O)OC6)CC[C@]5(O)[C@@H]4CC[C@]3(O)C2)[C@H](O)[C@H](O)[C@H]1O [OUABAIN]	Not Active	Not Active	Not Active	Not Active	Not Active	Not Active	Not Active	Not Active	–	–
NC(=O)N1c2ccccc2CC(=O)c2ccccc21 [OXCARBAZEPINE]	Not Active	Not Active	Not Active	Not Active	Not Active	Not Active	Not Active	Not Active	–	–
COc1ccnc(C[S+]([O-])c2nc3ccc(OC(F)F)cc3[nH]2)c1OC (centres undefined) [PANTOPRAZOLE]	Not Active	Not Active	Not Active	Not Active	Not Active	Not Active	Not Active	Not Active	–	–

Source: ChEMBL document CHEMBL1909046, “DrugMatrix in vitro pharmacology data”
